Test system: primary mouse hepatocytes
Experiment: Gene expression in primary mouse hepatocytes, GTX vs non-GTX (four-gene classifier, 24 h)
Details: for score 1700007K13RIK / score DDIT4L / score GAS2L3 / score SPC25 / Ratios of gene expression treated/untreated 1700007K13RIK / Ratios of gene expression treated/untreated DDIT4L / Ratios of gene expression treated/untreated GAS2L3 / Ratios of gene expression treated/untreated SPC25: 24 h exposure; for score 1700007K13RIK / score DDIT4L / score GAS2L3 / score SPC25: average of four replicates; for Ratios of gene expression treated/untreated 1700007K13RIK / Ratios of gene expression treated/untreated DDIT4L / Ratios of gene expression treated/untreated GAS2L3 / Ratios of gene expression treated/untreated SPC25: log 2 ratio, concentration per Table 4; for Total score: sum of scores for four genes, 0 = not genotoxic, 1, 2, 3 or 4 = genotoxic
Procedure: Hepatocyte cells were incubated and exposed to a compound for 24 h before being harvested for RNA isolation.
The results of the gene expression analysis may then be fed into a statistical software package such as R, Splus, or Microsoft Excel. […] If none or only one of these criteria were met, no point was scored.
For each of the four genes mentioned in the table (1700007K13RIK, GAS2L3, SPC25, DDIT4L), a statistical comparison was made between the normalized expression data for these genes. […] If none or only one of these criteria were met, no point was scored.
For each compound, the sum of the scores for four genes is taken. If this score is 0, a compound can be believed not to be genotoxic. If this score is 1, 2, 3 or 4, a compound is genotoxic.
If none or only one of these criteria were met, no point was scored.

SMILES	score 1700007K13RIK	score DDIT4L	score GAS2L3	score SPC25	Ratios of gene expression treated/untreated 1700007K13RIK	Ratios of gene expression treated/untreated DDIT4L	Ratios of gene expression treated/untreated GAS2L3	Ratios of gene expression treated/untreated SPC25	Total score
CCC[CH2][Sn]([CH2]CCC)([CH2]CCC)[O][Sn]([CH2]CCC)([CH2]CCC)[CH2]CCC [TBTO, Bis(tri-n-butyltin)oxide]	0	0	0	0	0.09131	0.319	−0.0161	0.2186	0
Cc1cccc(Nc2cc(Cl)nc(SCC(=O)O)n2)c1C [Wyeth, Wy-14,643]	0	0	0	0	−0.3527	−0.1013	−0.7113	−0.0756	0
